Reference: patent publication US20250179061A1 (SIRONAX LTD., priority 2022, published 2025)

tested on: HT-29 cells; experiment: HT-29 necroptosis cell viability assay (TNF-α/SMAC mimetic/zVAD-FMK, CellTiter-Glo); assay type: cell-based; conditions: Homo sapiens, HT-29, HT-29 necroptosis cell viability, IC50 class symbols; read-out: Activity
Method in brief: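 Necroptosis was triggered by TNF-α (10 ng/ml), SMAC mimetic (6 μM) and zVAD-FMK (10 μM) in serum-free medium during 20 h compound exposure (10 concentrations, threefold steps) of HT-29 cells. IC50 from duplicate dose-responses uses CellTiter-Glo ATP luminescence as viability read-out.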

Q: With `O=c1n(Cc2c(F)cccc2F)cnn1-c1ccc(Oc2ccnc(NCC3CCOC3)c2)cc1` (centres unmarked) [Example 259, 4-(2,6-difluorobenzyl)-2-(4-((2-(((tetrahydrofuran-3-yl)methyl)amino)pyridin-4-yl)oxy)phenyl)-2,4-dihydro-3H-1,2,4-triazol-3-one] as the compound, how does the IC50 read?
A: 100 to 1000 nM

Q: `CCOC1CN(c2cc(Oc3ccc(-n4ncn(Cc5c(F)cccc5F)c4=O)cc3Cl)c(Cl)cn2)C1` [Example 260, 2-(3-chloro-4-((5-chloro-2-(3-ethoxyazetidin-1-yl)pyridin-4-yl)oxy)phenyl)-4-(2,6-difluorobenzyl)-2,4-dihydro-3H-1,2,4-triazol-3-one] was tested. Which IC50 did it give?
A: < 100 nM

Q: How did the IC50 turn out when `CCOC1CN(c2nccc(Oc3ccc(-n4ncn(Cc5c(F)cccc5F)c4=O)cc3)c2Cl)C1` [Example 261, 2-(4-((3-chloro-2-(3-ethoxyazetidin-1-yl)pyridin-4-yl)oxy)phenyl)-4-(2,6-difluorobenzyl)-2,4-dihydro-3H-1,2,4-triazol-3-one] was run?
A: 100 to 1000 nM

Q: Which IC50 does the source give for `CC1(C#N)CN(c2cc(Oc3ccc(-n4ncn(Cc5c(F)cccc5F)c4=O)cc3F)c(F)cn2)C1` [Example 262, 1-(4-(4-(4-(2,6-difluorobenzyl)-5-oxo-4,5-dihydro-1H-1,2,4-triazol-1-yl)-2-fluorophenoxy)-5-fluoropyridin-2-yl)-3-methylazetidine-3-carbonitrile] here?
A: < 100 nM

Q: `Cc1cnc(N2CC3(CCOCC3)C2)cc1Oc1ccc(-n2ncn(Cc3c(F)cccc3F)c2=O)cc1` [Example 263, 4-(2,6-difluorobenzyl)-2-(4-((5-methyl-2-(7-oxa-2-azaspiro[3.5]nonan-2-yl)pyridin-4-yl)oxy)phenyl)-2,4-dihydro-3H-1,2,4-triazol-3-one] was tested. Which IC50 did it give?
A: < 100 nM

Q: With `N#CC1CN(c2cc(Oc3ccc(-n4ncn(Cc5c(F)cccc5F)c4=O)cc3)ccn2)CC1O` (centres unmarked) [Example 264, 1-(4-(4-(4-(2,6-difluorobenzyl)-5-oxo-4,5-dihydro-1H-1,2,4-triazol-1-yl)phenoxy)pyridin-2-yl)-4-hydroxypyrrolidine-3-carbonitrile] as the compound, how does the IC50 read?
A: < 100 nM

Q: `CC1(CO)CCN(c2cc(Oc3ccc(-n4ncn(Cc5c(F)cccc5F)c4=O)cc3)ccn2)C1` (centres unmarked) [Example 265, 4-(2,6-difluorobenzyl)-2-(4-((2-(3-(hydroxymethyl)-3-methylpyrrolidin-1-yl)pyridin-4-yl)oxy)phenyl)-2,4-dihydro-3H-1,2,4-triazol-3-one] was tested. Which IC50 did it give?
A: 100 to 1000 nM

Q: `CCOC1CN(c2cc(Oc3ccc(-n4ncn(Cc5c(F)cccc5F)c4=O)cc3)c(C)cn2)C1` [Example 266, 4-(2,6-difluorobenzyl)-2-(4-((2-(3-ethoxyazetidin-1-yl)-5-methylpyridin-4-yl)oxy)phenyl)-2,4-dihydro-3H-1,2,4-triazol-3-one] was tested. Which IC50 did it give?
A: < 100 nM

Q: How did the IC50 turn out when `Cc1cnc(NC23CC(C#N)(C2)C3)cc1Oc1ccc(-n2ncn(Cc3c(F)cccc3F)c2=O)cc1Cl` [Example 267, 3-((4-(2-chloro-4-(4-(2,6-difluorobenzyl)-5-oxo-4,5-dihydro-1H-1,2,4-triazol-1-yl)phenoxy)-5-methylpyridin-2-yl)amino)bicyclo[1.1.1]pentane-1-carbonitrile] was run?
A: < 100 nM

Q: With `C[C@H]1CCCN1c1cc(Oc2ccc(-n3ncn(Cc4c(F)cccc4F)c3=O)cc2)ccn1` [Example 268, (S)-4-(2,6-difluorobenzyl)-2-(4-((2-(2-methylpyrrolidin-1-yl)pyridin-4-yl)oxy)phenyl)-2,4-dihydro-3H-1,2,4-triazol-3-one] as the compound, how does the IC50 read?
A: < 100 nM

Q: Which IC50 does the source give for `O=c1n(Cc2c(F)cccc2F)cnn1-c1ccc(Oc2ccnc(N3CCOC4(COC4)C3)c2)cc1` [Example 269, 2-(4-((2-(2,5-dioxa-8-azaspiro[3.5]nonan-8-yl)pyridin-4-yl)oxy)phenyl)-4-(2,6-difluorobenzyl)-2,4-dihydro-3H-1,2,4-triazol-3-one] here?
A: 100 to 1000 nM

Q: `N#CC12CC(Nc3cc(Oc4ccc(-n5ncn(Cc6c(F)cccc6F)c5=O)cc4F)c(Cl)cn3)(C1)C2` [Example 270, 3-((5-chloro-4-(4-(4-(2,6-difluorobenzyl)-5-oxo-4,5-dihydro-1H-1,2,4-triazol-1-yl)-2-fluorophenoxy)pyridin-2-yl)amino)bicyclo[1.1.1]pentane-1-carbonitrile] was tested. Which IC50 did it give?
A: < 100 nM

Q: Which IC50 does the source give for `Cc1c(Oc2ccc(-n3ncn(Cc4c(F)cccc4F)c3=O)cc2F)ccnc1NC12CC(C#N)(C1)C2` [Example 271, 3-((4-(4-(4-(2,6-difluorobenzyl)-5-oxo-4,5-dihydro-1H-1,2,4-triazol-1-yl)-2-fluorophenoxy)-3-methylpyridin-2-yl)amino)bicyclo[1.1.1]pentane-1-carbonitrile] here?
A: < 100 nM

Q: For `N#CC12CC(Nc3cc(Oc4ccc(-n5ncn(Cc6c(F)cccc6F)c5=O)cc4Cl)c(F)cn3)(C1)C2` [Example 272, 3-((4-(2-chloro-4-(4-(2,6-difluorobenzyl)-5-oxo-4,5-dihydro-1H-1,2,4-triazol-1-yl)phenoxy)-5-fluoropyridin-2-yl)amino)bicyclo[1.1.1]pentane-1-carbonitrile], which IC50 is on record?
A: < 100 nM

Q: With `Cc1c(Oc2ccc(-n3ncn(Cc4c(F)cccc4F)c3=O)cc2)ccnc1N1CC2(CCOCC2)C1` [Example 273, 4-(2,6-difluorobenzyl)-2-(4-((3-methyl-2-(7-oxa-2-azaspiro[3.5]nonan-2-yl)pyridin-4-yl)oxy)phenyl)-2,4-dihydro-3H-1,2,4-triazol-3-one] as the compound, how does the IC50 read?
A: 100 to 1000 nM

Q: For `Cc1cc(-n2ncn(Cc3c(F)cccc3F)c2=O)ccc1Oc1ccnc(N2CC3(CCOCC3)C2)c1` [Example 274, 2-(4-((2-(7-oxa-2-azaspiro[3.5]nonan-2-yl)pyridin-4-yl)oxy)-3-methylphenyl)-4-(2,6-difluorobenzyl)-2,4-dihydro-3H-1,2,4-triazol-3-one], which IC50 is on record?
A: 1000 to 10000 nM

Q: For `O=c1n(Cc2c(F)cccc2F)cnn1-c1ccc(Oc2ccnc(N3CC(OC(F)(F)F)C3)c2)cc1` [Example 275, 4-(2,6-difluorobenzyl)-2-(4-((2-(3-(trifluoromethoxy)azetidin-1-yl)pyridin-4-yl)oxy)phenyl)-2,4-dihydro-3H-1,2,4-triazol-3-one], which IC50 is on record?
A: 100 to 1000 nM

Q: `N#CC1CCCN(c2cc(Oc3ccc(-n4ncn(Cc5c(F)cccc5F)c4=O)cc3)ccn2)C1` (centres unmarked) [Example 277, 1-(4-(4-(4-(2,6-difluorobenzyl)-5-oxo-4,5-dihydro-1H-1,2,4-triazol-1-yl)phenoxy)pyridin-2-yl)piperidine-3-carbonitrile] was tested. Which IC50 did it give?
A: 100 to 1000 nM

Q: How did the IC50 turn out when `N#CC1(CO)CN(c2cc(Oc3ccc(-n4ncn(Cc5c(F)cccc5F)c4=O)cc3)ccn2)C1` [Example 278, 1-(4-(4-(4-(2,6-difluorobenzyl)-5-oxo-4,5-dihydro-1H-1,2,4-triazol-1-yl)phenoxy)pyridin-2-yl)-3-(hydroxymethyl)azetidine-3-carbonitrile] was run?
A: 100 to 1000 nM

Q: Which IC50 does the source give for `O=c1n(Cc2c(F)cccc2F)cnn1-c1ccc(Oc2ccnc(NCC3CCO3)c2)cc1` (centres unmarked) [Example 279, 4-(2,6-difluorobenzyl)-2-(4-((2-((oxetan-2-ylmethyl)amino)pyridin-4-yl)oxy)phenyl)-2,4-dihydro-3H-1,2,4-triazol-3-one] here?
A: 100 to 1000 nM

Q: How did the IC50 turn out when `O=c1n(Cc2c(F)cccc2F)cnn1-c1ccc(Oc2ccnc(N3CC(F)(C4CC4)C3)c2)cc1` [Example 280, 2-(4-((2-(3-cyclopropyl-3-fluoroazetidin-1-yl)pyridin-4-yl)oxy)phenyl)-4-(2,6-difluorobenzyl)-2,4-dihydro-3H-1,2,4-triazol-3-one] was run?
A: 100 to 1000 nM

Q: Which IC50 does the source give for `CC1CN(c2cc(Oc3ccc(-n4ncn(Cc5c(F)cccc5F)c4=O)cc3)ccn2)CC1C#N` (centres unmarked) [Example 281, 1-(4-(4-(4-(2,6-difluorobenzyl)-5-oxo-4,5-dihydro-1H-1,2,4-triazol-1-yl)phenoxy)pyridin-2-yl)-4-methylpyrrolidine-3-carbonitrile] here?
A: < 100 nM

Q: How did the IC50 turn out when `C[C@H]1C[C@@H](C#N)CN1c1cc(Oc2ccc(-n3ncn(Cc4c(F)cccc4F)c3=O)cc2)ccn1` [Example 282, (3R,5S)-1-(4-(4-(4-(2,6-difluorobenzyl)-5-oxo-4,5-dihydro-1H-1,2,4-triazol-1-yl)phenoxy)pyridin-2-yl)-5-methylpyrrolidine-3-carbonitrile] was run?
A: < 100 nM

Q: For `O=c1n(Cc2c(F)cccc2F)cnn1-c1ccc(Oc2cc(N3CCOCC3)ncc2F)c(F)c1` [Example 283, 4-(2,6-difluorobenzyl)-2-(3-fluoro-4-((5-fluoro-2-morpholinopyridin-4-yl)oxy)phenyl)-2,4-dihydro-3H-1,2,4-triazol-3-one], which IC50 is on record?
A: < 100 nM

Q: Which IC50 does the source give for `C[C@H]1C[C@@H](C#N)CN1c1cc(Oc2ccc(-n3ncn(Cc4c(F)cccc4F)c3=O)cc2F)c(F)cn1` [Example 284, (3R,5S)-1-(4-(4-(4-(2,6-difluorobenzyl)-5-oxo-4,5-dihydro-1H-1,2,4-triazol-1-yl)-2-fluorophenoxy)-5-fluoropyridin-2-yl)-5-methylpyrrolidine-3-carbonitrile] here?
A: < 100 nM

Q: For `O=c1n(Cc2c(F)cccc2F)cnn1-c1ccc(Oc2cncc(N3CC4(CCOCC4)C3)c2)cc1` [Example 285, 2-(4-((5-(7-oxa-2-azaspiro[3.5]nonan-2-yl)pyridin-3-yl)oxy)phenyl)-4-(2,6-difluorobenzyl)-2,4-dihydro-3H-1,2,4-triazol-3-one], which IC50 is on record?
A: < 100 nM

Q: How did the IC50 turn out when `CC1(C#N)CN(c2cccnc2OCc2ccc(-n3ncn(Cc4c(F)cccc4F)c3=O)cc2)C1` [Example 286, 1-(2-((4-(4-(2,6-difluorobenzyl)-5-oxo-4,5-dihydro-1H-1,2,4-triazol-1-yl)benzyl)oxy)pyridin-3-yl)-3-methylazetidine-3-carbonitrile] was run?
A: 100 to 1000 nM

Q: `O=c1n(Cc2c(F)cccc2F)cnn1-c1ccc(Oc2ccnc(N3CC(OC(F)F)C3)c2)cc1` [Example 287, 4-(2,6-difluorobenzyl)-2-(4-((2-(3-(difluoromethoxy)azetidin-1-yl)pyridin-4-yl)oxy)phenyl)-2,4-dihydro-3H-1,2,4-triazol-3-one] was tested. Which IC50 did it give?
A: < 100 nM

Q: With `O=c1n(Cc2c(F)ccc(F)c2F)cnn1-c1ccc(Oc2ccnc(N3CC4(CCOCC4)C3)c2)cc1` [Example 288, 2-(4-((2-(7-oxa-2-azaspiro[3.5]nonan-2-yl)pyridin-4-yl)oxy)phenyl)-4-(2,3,6-trifluorobenzyl)-2,4-dihydro-3H-1,2,4-triazol-3-one] as the compound, how does the IC50 read?
A: 100 to 1000 nM
